According to patent US20070197432A1, “Peptides for preventing, diagnosing and treating animal and/or human leptospirosis” (priority 2002, published 2007):
No end group written: not given here.

How the values were obtained:
[1] = Dogs immunized with PP-KLH, immunization phase (tolerance, weight); type: in vivo, dog
Method: (§1) An immunization/challenge protocol was carried out in order to evaluate the protection that can be provided by the PP peptide (SEQ ID No. 1) NH2-coupled to the KLH carrier protein (FIG. 14).
(§2) This construct is administered subcutaneously without adjuvant, with PBS as a negative control (batch 2).
(§3) Batch 1: 6 SPF dogs, 2 injections of 250 μg of PP-KLH in 1 ml subcutaneously.
(§4) Batch 2: 6 SPF dogs, control.
(§5) The two injections were administered subcutaneously, […].
The immunization phase was carried out from D-39 to D-1, (D0 being the day of challenge), with the first injection on D-35 and second on D-18.
During this phase, the weight was measured on D-39, D-35, D-28, and D-7 (FIG. 15).

[2] = system: Leptospira interrogans sl serovar canicola; test: Trial 1: gerbils immunized with PP-KLH, 10^−2.5 canicola challenge; type: in vivo, gerbil
Method: (§6) An immunization/challenge protocol was carried out in order to evaluate the protection that can be provided by the PP peptide (SEQ ID No. 1) coupled to the KLH protein.
as §2
(§7) Batch 1: 10 gerbils, 2 injections of 30 μg of PP-KLH in 300 μl, subcutaneously.
Batch 2: 10 gerbils, 2 injections of PBS in 300 μl.
(§8) The two injections in a volume of 300 μl were administered subcutaneously, two weeks apart. A challenge by intraperitoneal injection of 0.5 ml of a canicola culture with a titer of 90 to 100 TU (turbidimetry) diluted to 10^−2.5 was administered two weeks after the second injection. • Antigenic response: Monitoring by ELISA of the immune response of the gerbils against the PP peptide

[3] = system: Leptospira interrogans sl serovar canicola; test: Dogs immunized with PP-KLH, canicola challenge: clinical, hematological and biochemical parameters; type: in vivo, dog
Method: as §1, §2, §3, §4, §5
The challenge (CH) was carried out on D0.
The animals are given a challenge at a rate of one virulent culture of 4 to 6 days. For an immunized batch and a control batch, each animal received, in each eye, 0.3 ml of the culture having a titer of 120 TU (i.e. 2×10^8 leptospires per ml) and, intraperitoneally, 4 ml of the same culture diluted ten-fold.
The challenge phase was carried out from D-1 to […], with the challenge on D0.
During this phase, the temperature was measured on D0, D1, D2, D3, D4, D5, D6 and D7.
The hematological parameters were measured on D-1, D3, D7, D10, D14, D15 and D41.
The biochemical parameters were measured on D-1, D3, D7, D10, D14, D18, D25 and D41.

PP peptide = test: Trial 1: anti-PP IgG ELISA of gerbils immunized with PP-KLH; type: in vivo, gerbil; conditions: three dilutions observed
Method: as §6, §2, §7, §8
The anti-PP antibodies were titered in the gerbil by means of an ELISA technique (described above) with a biotinylated anti-gerbil antiglobulin (BioAtlantic) at 1/3000 and, as visualizing agent, peroxidase-coupled streptavidin (RPN1231, Amersham pharmacia biotech).
For each batch of gerbils, the sera were combined with respect to the various sample dates D0 (before the first immunization), D14 (before the second immunization) and D28 (before the challenge).
The results of the IgG antibody response against the PP peptide, expressed as corrected OD (OD of the treated sera corrected with respect to the OD of the control sera), are given in FIG. 11.

[4] = system: Leptospira interrogans sl serovar canicola; test: Dogs immunized with PP-KLH, canicola challenge: cultures of plasma, urine and kidney samples; type: in vivo, dog
[5] = system: Leptospira interrogans sl serovar canicola; test: Dogs immunized with PP-KLH, canicola challenge: clinical, hematological and biochemical parameters; type: in vivo, dog; conditions: at D4
[6] = system: Leptospira interrogans sl serovar canicola; test: Trial 2: gerbils immunized with PP-KLH or PP, 10^−2 canicola challenge; type: in vivo, gerbil; set-up: Mortality rate / Survival rate: unit not given here
Method: An immunization/challenge trial was carried out in order to evaluate the protection that can be provided by the PP peptide (SEQ ID No. 1) coupled or not coupled to the KLH protein.
This construct is administered subcutaneously without adjuvant, and PBS is administered by the same route as the negative control (batch 3). • Batch 1: 12 gerbils, 2 injections of 30 μg of PP-KLH in 300 μl. • Batch 2: 12 gerbils, 2 injections of 30 μg of PP in 300 μl. • Batch 3: 15 gerbils, 2 injections of PBS in 300 A1.
The two injections in a volume of 300 μl were administered subcutaneously, two weeks apart. A challenge by intraperitoneal injection of 0.5 ml of a serovar canicola leptospiral culture with a titer of 90 to 100 TU (turbidimetry) diluted to 10^−2 was administered three weeks after the second injection.

[7] = Accumulation of the two trials, survival

PP-KLH: PP peptide with cysteine added at the N-terminal position, coupled via sulfo-MBS to KLH carrier protein (keyhole limpet hemocyanin) (KAKPVQKLDDDDDGDDTYKEERHNK; not fully specified (N-terminus))
tolerance in immunization phase ([1]; SPF dogs, 2 s.c. injections of 250 μg without adjuvant): complete tolerance
p, evolution of mean increase in weights, control versus immunized dogs (not significantly different) ([1]; between D-35 and D-7): 0.8509
Mortality rate ([2]; 10^−2.5 canicola challenge): 6/10
Survival rate ([2]; 10^−2.5 canicola challenge): 4/10
gerbils alive ([2]; 10^−2.5 canicola challenge, D4): 10
gerbils alive ([2]; 10^−2.5 canicola challenge, D5): 10
gerbils alive ([2]; 10^−2.5 canicola challenge, D6): 7
gerbils alive ([2]; 10^−2.5 canicola challenge, D7): 5
gerbils alive ([2]; 10^−2.5 canicola challenge, D8): 4
gerbils alive ([2]; 10^−2.5 canicola challenge, D9): 4
gerbils alive ([2]; 10^−2.5 canicola challenge, D10): 4
gerbils alive ([2]; 10^−2.5 canicola challenge, D11): 4
gerbils alive ([2]; 10^−2.5 canicola challenge, D30): 4
gerbils alive ([2]; 10^−2.5 canicola challenge, before challenge): 10
gerbils alive ([2]; 10^−2.5 canicola challenge, day of challenge): 10
Survival rate ([2]; 10^−2.5 canicola challenge, listed as PP peptide coupled to the KLH protein): 4 of the 10
p, log-rank test versus control ([2]; Experiment 1, survival): <7.10^−2
thrombocytopenia ([3]; after challenge): significantly more pronounced in the controls than in the immunized dogs
p, difference in temperature, control versus immunized dogs (controls more pronounced febrile peak) ([3]; at D3 and D4): < 0.05
P, evolution of mean increase in temperature, control versus immunized dogs (not significantly different) ([3]; between D0 and D7): 0.7944
P, evolution of white blood cells, control versus immunized dogs (not significantly different) ([3]; between D-1 and D41): 0.4407
p, evolution of mean variation in platelets, control versus immunized dogs (significantly different) ([3]; between D-1 and D41): 0.0412
mortality following the challenge ([3]; dogs, immunized and control): No mortality
protection against a canicola challenge in dogs ([3]; overall conclusion): makes it possible to induce protection
p, tendency for higher urea level in the controls (no significant difference) ([3]; period of acute effect in the kidneys (D0-D10)): < 0.15
p, urea level in the controls significantly higher ([3]; period of kidney colonization (D10-D41)): < 0.02
boost effect of second injection: corrected OD at D28 relative to D14 (PP peptide): more than double
positive cultures/dogs ([4]; Kidneys, D41): 5/6
positive cultures/dogs ([4]; Urine, D7): 3/6
p, monocyte depletion observed only in the controls [5]: 0.05
p, transient leukopenia greater in control than in immunized dogs [5]: < 0.05
lymphopenia ([5]; significant in the controls): not noted at all
Mortality rate ([6]; 10^−2 canicola challenge): 8.3
Survival rate ([6]; 10^−2 canicola challenge): 91.6
mortality in the group (dead/number) ([6]; 10^−2 canicola challenge): 1/12
gerbils at challenge ([6]; 10^−2 canicola challenge, D0): 12
mortality of gerbils (dead/number) ([6]; 10^−2 canicola challenge, D4): 0/12
mortality of gerbils (dead/number) ([6]; 10^−2 canicola challenge, D5): 0/12
mortality of gerbils (dead/number) ([6]; 10^−2 canicola challenge, D6): 0/12
mortality of gerbils (dead/number) ([6]; 10^−2 canicola challenge, D7): 0/12
mortality of gerbils (dead/number) ([6]; 10^−2 canicola challenge, D8): 0/12
mortality of gerbils (dead/number) ([6]; 10^−2 canicola challenge, D9): 1/12
mortality of gerbils (dead/number) ([6]; 10^−2 canicola challenge, D10): 0/11
mortality of gerbils (dead/number) ([6]; 10^−2 canicola challenge, D11): 0/11
mortality of gerbils (dead/number) ([6]; 10^−2 canicola challenge, D12): 0/11
mortality of gerbils (dead/number) ([6]; 10^−2 canicola challenge, D13): 0/11
mortality of gerbils (dead/number) ([6]; 10^−2 canicola challenge, D14): 0/11
mortality of gerbils (dead/number) ([6]; 10^−2 canicola challenge, D15): 0/11
mortality of gerbils (dead/number) ([6]; 10^−2 canicola challenge, D16): 0/11
mortality of gerbils (dead/number) ([6]; 10^−2 canicola challenge, D17): 0/11
mortality of gerbils (dead/number) ([6]; 10^−2 canicola challenge, D28): 0/11
p, log-rank test versus control [6, 7]: <2.10^−3
χ^2, log-rank test versus control [6, 7]: 10.1
p, log-rank test versus control ([6]; Experiment 2, survival): <1.10^−2
χ^2, log-rank test versus control ([6]; Experiment 2, survival): 6.84
